Experimental data: patent publication US11472772B2, “S1P3 antagonists” (Teva Pharmaceutical Industries, Ltd., priority 2013, dated 2022)

Key:
Format in all cases: in vivo, rat
[1] = test system: quisqualic acid lesioned rats; test: Quisqualic acid (QUIS) injection in Nucleus Basalis Magnocellularis of rats: immunohistochemistry for neurodegeneration and neuroinflammation (ChAT, GFAP, OX42)
Source text: (§1) The efficacy of the compounds of the invention on neurodegeneration and neuroinflammation can be evaluated with two different methodological approaches aimed to reproduce some pathological features of Alzheimer's disease: • 1) the excitotoxic insult (quisqualic acid—QUIS) in the Nucleus Basalis Magnocellularis (NBM), characterized by severe neurodegeneration of cholinergic neurons along with significant neuroinflammation. • 2) the β-amyloid peptide 25-35 (Aβ25-35) injection in NBM of rats, inducing a significant glia reaction around Aβ25-35 deposits with modest toxicity on cholinergic neurons. • Readouts are based on immunochemical analysis and are: count of cholinergic neurons (ChAT-positive), astrocytes (GFAP-positive) and microglia (OX-42 or Iba-1 positive). The analysis is performed by two different approaches, the visual scoring (blind) and the digital platform APERIO®.
(§2) Three-month old male Wistar rats (Harlan, Milan, Italy) weighing 230-250 g were used. The rats were housed in macrolon cages with ad lib food and water and maintained on a 12 h light/dark cycle at 23° C. room temperature (RT). All experiments were carried out according to the guidelines of the European Community's Council for Animal Experiments (86/609/EEC). Efforts were made to minimize the number of animals used and their suffering.
The quisqualic acid (Sigma Chemical Co., Milan, Italy; dissolved in phosphate buffer at the concentration of 0.12 M volume 0.5 μl) or 10 ug of ABeta(25-35) peptide (Bachem) dissolved PBS at the concentration of 10 μg/μl and aggregate at 37° for 2 h before injection volume 1 μl) was injected by means of an Hamilton microsyringe into the right NBM under chloral hydrate anaesthesia at the following stereotaxic coordinates: AP=−0.2, L=−2.8 from bregma and H=7 from the dura (Paxinos and Watson, 1982, Casamenti et al., 1998). Controlateral NBM were injected with PBS solution. The study was performed for 7 days after surgery. […]

[2] = test system: Abeta(25-35) lesioned rats; test: Abeta(25-35) peptide injection in NBM of rats: GFAP staining; conditions: 30 mg/kg, Kruskall-Wallis
Source text: as §1
as §2, with “suffering. […]” for “suffering.”

[3] = test system: quisqualic acid lesioned rats; test: Object Recognition Test (ORT) on quisqualic acid lesioned rats; conditions: exploration time of familiar vs novel object
Description: QUIS-treated animals can also undergo the Object Recognition Test (ORT, measuring episodic memory) or other behavioural tests to measure the improvement of cognitive functions upon treatment with a compound of the invention.
as §2, with “suffering. […]” for “suffering.”
Object recognition was evaluated according to Ennanceur and Delacour (1988) and Scali et al., (1997). […] The times spent exploring the familiar (F) and the new object (N) were recorded separately and the difference between the two exploration times was taken. […]

CCCC(C(=O)Nc1cnc(Br)cn1)c1cncc(Br)c1 (stereo not drawn) [Example 33, 2-(5-Bromo-pyridin-3-yl)-pentanoic acid (5-bromo-pyrazin-2-yl)-amide]
Neuroprotective effect, rat NBM ChAT-positive neuron counts (APERIO) ([1]; 30 and 60 mg/Kg/day p.o., QUIS lesioned rats): strong neuroprotective effects
Anti-neuroinflammatory effect on astrocytes, GFAP reactivity ([1]; 30 and 60 mg/Kg/day, QUIS lesioned rats): strong activity on GFAP reactivity
Anti-neuroinflammatory and neuroprotective activity in the in vivo assays (FIGS. 1-3) ([1]; doses ranging 10 to 60 mg/kg): anti-neuroinflammatory and neuroprotective activity
GFAP-positive cells, quantitative analysis by visual scoring [2]: p<0.05 vs vehicle group
Cognitive functions in ORT (episodic memory) [3]: improved cognitive functions
Cognitive functions in ORT (episodic memory) ([3]; listed as example 33): significantly ameliorates cognitive functions
